According to US9840483B2, “Radiomitigating pharmaceutical formulations” (The Regents of the University of California, priority 2013, dated 2017):
Values after ≈ are worked out from the molar mass of the structure shown.

What was measured:
Solubility = format: physicochemical
[1] = system: Til-1 murine lymphocyte cells; assay: Mitigation of radiation-induced apoptosis in vitro: viability of irradiated Til-1 cells (ATPlite) screen; format: cell-based; details: Mus musculus, light or radiation study, added 1 hour after 2 Gy, viability 24 h after radiation, relative to control irradiated value (100%), read-out: In Vitro (Mitigation cell viability %)
Description: The ability of compounds from Example 1 to mitigate radiation-induced apoptosis in vitro relative to control values (100%) is shown in FIG. 1. Briefly, 100,000 small-molecules were screened at 10 μM final concentration in 1% dimethylsulfoxide (DMSO) using the viability of a murine lymphocyte line as a readout (Mitigation cell viability %). Ten thousand Til-1 murine lymphocyte cells were dispensed into each well of 384-well plates using a Multidrop 384 (Thermo Scientific, Waltham, Mass.) The Til-1 cells were irradiated at the dose of 2 Gy. After 1 hour, the small-molecules were added. Twenty-four hours after the radiation, cell viability was assayed by luminesce-based measurement of ATP production (ATPlite, Perkin-Elmer, Waltham, Mass.) with a SpectraMax M5 microplate reader (Molecular Devices, Sunnyvale, Calif.). The Z′ factor for the assay was >0.5. See Zhang, J. H., Chung, T. D., Oldenburg, K. R. “A Simple Statistical Parameter for Use in Evaluation and Validation of High Throughput Screening Assays,” J Biomol Screen 4:67, 1999. A positive readout was >130% of the control irradiated value.

TNF-α production = TNF-α production by LPS-stimulated peritoneal macrophages (ELISA); format: cell-based, murine; details: for TNF-α production: added to stimulated peritoneal macrophages 1 hr after LPS, supernatants at 24 hrs, ELISA
Description: NPSPs were tested for their anti-inflammatory ability using murine macrophages. […] Briefly, peritoneal macrophages (PMs) were induced by intraperitoneal, injection of 150 μg MIS416 (Innate Immunotherapeutics, NZ) and harvested on day 4 by peritoneal wash out with PBS. Culture supernatants were harvested at 24 hrs and cytokines tested by ELISA (BD Biosciences, SD).

C57Bl/6 mice = assay: Localized abdominal irradiation survival; format: in vivo; details: 16 and 18 Gy abdominally
TNF-α mRNA = assay: Cytokine mRNA expression in LPS-stimulated bone marrow-derived macrophages (qPCR); format: cell-based, murine; details: added to bone marrow-derived macrophages 1 hr after LPS, RT-PCR
Description: Additionally, bone marrow-derived macrophages (BMDMs) were derived by 7 days culture of marrow cells in medium containing 10% FBS and CSF-1 conditioned medium. The serum concentration was reduced to 2% FBS 16 h before stimulation with LPS for 30 min, treatment with drug and incubation for another 3.5 h (4 h total with LPS). Total cellular RNA was isolated by trizol and cDNA synthesized using iScript from BioRad. Gene expression was measured by qPCR and analyzed using the standard curve method, normalized to L32.

[2] = system: induced peritoneal macrophages; assay: Activation status of induced peritoneal macrophages after subcutaneous treatment of control or WBI mice; format: in vivo; details: for TNF-α production of induced peritoneal cells in response to LPS after treatment in vivo: compound given subcutaneously, macrophages harvested day 4, incubated 24 h with LPS
Description: To determine if compound 2 (5355512), injected subcutaneously would affect the activation status of induced peritoneal macrophages, compound 2 (5355512) was given subcutaneously to control or WBI (5 Gy) and peritoneal macrophages harvested at day 4 as before. Cells from these groups of mice were incubated for 24 h with LPS or LPS then 512 (See FIG. 12). […] However, this “priming” effect was less when WBI and Compound 2 (5355512) were combined in vivo.

myeloid suppressor cells = assay: In vivo anti-inflammatory activity, generation of myeloid suppressor cells; details: data not shown
[3] = system: Lewis lung (LLC) tumor lung colonies; assay: Lewis lung (LLC) model of artificial metastasis; format: in vivo, mice
Description: The Lewis lung (LLC) model of artificial metastasis was used to test the effects of the drug on the growth of tumor lung colonies in vivo and on radiation response. This was chosen because it is easy to see any drug effects on growth promotion and radioprotection in multiple tumors simultaneously. Specifically, C57Bl/6 mice and C3H mice were injected intravenously with 5×10^4 tumor cells. Subcutaneous injections of compound 2 (5355512) were started on day 4 when the tumors were already established in the lung. A daily dose of 20 mg/kg for 5 days was used to bias the experiment in favor of any tumor growth promotion. Local thoracic irradiation (LTI) was started on day 5 with 4 Gy daily doses for 3 days. This is higher than conventional 2 Gy to compensate for the rapid growth of murine tumors, but is still well within the higher ranges used clinically in hypofractionated exposures. The colonies were counted on day 14. […] LTI alone decreased the number of colonies by 40%.

C3H mice and C57 mice = assay: Local thoracic irradiation, radiation pneumonitis and fibrosis; format: in vivo; details: local thoracic irradiation 14 and 18 Gy
[4] = system: C3Hf/Kam and C57B16/J mice; assay: Animal Whole Body Irradiation (WBI) assay, mitigation of lethality; format: in vivo; details: for Mitigation of WBI lethality at 5 mg/kg: 5 mg/kg injected subcutaneously; for Most effective dose in dose response: C3H male mice, compared with 1, 2, 10, 40, or 75 mg/kg; for Mitigation of WBI lethality in C57Bl/6 female mice: LD70/30 dose 8.509 Gy; for Survivors at day 30: lowest dosage 5 mg/kg subcutaneously, superior to 40 and 75 mg/kg; for Mitigation of WBI lethality, oral gavage 5 mg/kg / Mitigation of WBI lethality, oral gavage 25 mg/kg: orally by gavage, 5 daily doses starting 24 hours post-WBI, C3H and C57Bl/6 strains; for Effect of increasing the single dose: single dose increased to 25 mg/kg, 24 hours after WBI; for Mitigation of WBI lethality, single dose: single dose of 5 mg/kg given 24 hours after WBI
Description: Briefly, Animal Whole Body Irradiation (WBI) Assays were conducted with C3Hf/Kam and C57B16/J mice. The mice were bred and maintained in a strict gnotobiotic environment in the American Association of Laboratory Animal Care-Accredited Animal Facilities of Department of Radiation Oncology, UCLA. The Animal Care and Use Committee approved all experiments, which were performed in accordance with all local and national guidelines for the care and use of animals. Mice, 9-12 weeks old, were given WBI using a Gamma cell 40 irradiator (Cs137 source; Atomic Energy of Canada, Ltd.) at a dose rate of […]. Mice were monitored for at least 30 days and defined criteria for humane euthanasia was used as an endpoint.
Compounds were typically dissolved in 15 μL DMSO and suspended in 1 mL of 1% Cremphor EL in water for administration in 0.2 mL volumes. […] All mice, including controls, received the same diluent as the experimental groups. The chosen compounds were administered to the mice 5 times at 24 h intervals, starting 24 hours after WBI at LD70/30 (7.725 Gy for the C3H strain) doses. Similar data were obtained with a single dose and at 48 hours after radiation exposure in both mouse strains. Both subcutaneous and oral routes were effective. The compounds provided greatly elevated animals survival level as compared to control group.
Dose response experiments were executed in a manner similar to the WBI Assay described in Example 3. […] Both Compound 2 (53555.12) and Compound 3 (5346360) were effective in C57Bl/6 female mice in this case mitigating against LD70/30 doses of 8.509 Gy due to the relative radioresistance of this strain relative to C3Hs. […] When given orally by gavage, Compound 2 (535551.2) in 5 daily doses starting at 24 hours post-WBI was effective at 5 mg/kg in both C3H and C57Bl/6 strains, but not at 25 mg/kg.
Probit analyses of the effect of varying the radiation dose with Compound 2 (5355512) (5 mg/kg), and Compound 3 (5346360) (5 mg/kg), or 5 (5116319) (75 mg/kg) given subcutaneously for 5 days starting 24 hours after WBI, is shown in FIG. 6, with 95% confidence limits shown for LD50 values. The dose-response curves are steep with the dose modifying factors varying with the level of effect and drug, but were in the range 1.04-1.09. Such factors have to be considered against the level of the control and the reason for lethality. In this case, hematological insufficiency and not infection is the cause of death and as a result the radioresistance of the C3H strain is relatively high.
Compounds P1, P2, and P3, analogs of Compound 2 (5355512), were synthesized according to standard protocols. […] The analogs were injected subcutaneously 5 times over 5 clays at 5 mg/kg. Compound P2 elicited 100% survival after 30 days.

[5] = system: endogenous colony forming units in the spleens; assay: Endogenous colony forming units in spleens after WBI; format: in vivo, mice; details: for Average endogenous CFU per spleen / Total endogenous CFU in spleens: 10 days after WBI at 6.5 Gy, 7.0 Gy, and 7.5 Gy
From the text: For example, Compound 2 (5355512) increased the total endogenous CFU in spleens and average endogenous CFU per spleen, at 10 days after whole body irradiation (WBI) at varying doses (e.g. 6.5 Gy, 7.0 Gy, and 7.5 Gy). (See FIG. 13).

[6] = Breakdown products identified in vivo by mass spectrometry; details: analog of Compound 2
[7] = injected subcutaneously 5 times over 5 days at 5 mg/kg

O=[N+]([O-])c1ccc(S(=O)(=O)N2CCN(c3ccc(F)cc3)CC2)cc1 [Compound 1, 1-(4-fluorophenyl)-4-[(4-nitrobenzene)sulfonyl]piperazine]
solubility (Solubility): 26.6 µM (≈ 9.72 µg/mL)
viability at 10 µM [1]: 188%

O=[N+]([O-])c1ccc(S(=O)(=O)N2CCN(c3ccccc3)CC2)cc1 [Compound 2, 1-[(4-nitrobenzene)sulfonyl]-4-phenylpiperazine]
TNF-α production (TNF-α production): inhibit TNF-α production
Anti-inflammatory activity: LPS-induced production of tumor necrosis factor and other inflammatory cytokines (TNF-α production; murine macrophages): showed anti-inflammatory activity
Mitigation of abdominal radiation (C57Bl/6 mice): mitigation of abdominal radiation
Expression of TNF-α mRNA and other cytokines (TNF-α mRNA): inhibit expression of TNF-α mRNA, and other cytokines
Priming effect when WBI and compound combined in vivo ([2]; WBI (5 Gy) plus compound subcutaneously): less
TNF-α production of induced peritoneal cells in response to LPS after treatment in vivo [2]: “primed” induced peritoneal cells to produce TNF-α
TNF-α production of induced peritoneal cells in response to LPS after treatment in vivo ([2]; listed as compound 2): induces peritoneal macrophages to produce TNF-α
TNF-α production after addition of compound in vitro ([2]; harvested cells incubated with LPS then compound): blunted TNF-α production
solubility (Solubility): 66.1 µM (≈ 23 µg/mL)
Anti-inflammatory activity in vivo (myeloid suppressor cells): showed anti-inflammatory activity
Number of colonies with LTI plus drug versus LTI alone ([3]; 20 mg/kg daily for 5 days plus local thoracic irradiation 4 Gy daily for 3 days from day 5): not further decreased
Decrease in number of lung tumor colonies ([3]; 20 mg/kg subcutaneously daily for 5 days from day 4, colonies counted day 14, P<0.05): 20%
Size of lung tumor colonies ([3]; 20 mg/kg subcutaneously daily for 5 days from day 4, day 14): smaller in size
Survival post thoracic radiation (C3H mice and C57 mice): supported survival of C3H mice and C57 mice to 100 days
Mitigation of WBI lethality at 5 mg/kg [4]: effective
Most effective dose in dose response [4]: 5 mg/kg
Mitigation of WBI lethality in C57Bl/6 female mice [4]: effective
Survivors at day 30 [4]: 100%
Mitigation of WBI lethality, oral gavage 5 mg/kg [4]: effective
Mitigation of WBI lethality, oral gavage 25 mg/kg [4]: not
Mitigation of WBI lethality, single dose at 48 hours ([4]; single dose given 48 hours after WBI): Some activity was retained
Mitigation of WBI lethality, single dose at 72 hours ([4]; single dose given 72 hours after WBI): not
Effect of increasing the single dose [4]: did not improve efficacy
Mitigation of WBI lethality, single dose [4]: effective
Average endogenous CFU per spleen [5]: increased
Total endogenous CFU in spleens [5]: increased
Average endogenous CFU per spleen ([5]; listed as compound 2): increases
Total endogenous CFU in spleens ([5]; listed as compound 2): increases
Number of endogenous colony forming units in the spleens ([5]; mice that had received LD70/30 radiation doses): increased
viability at 10 µM [1]: 182%

O=[N+]([O-])c1ccc(S(=O)(=O)N2CCN(c3cccc(Cl)c3)CC2)cc1 [Compound 3]
TNF-α production (TNF-α production): inhibit TNF-α production
Expression of TNF-α mRNA and other cytokines (TNF-α mRNA): inhibit expression of TNF-α mRNA, and other cytokines
solubility (Solubility): 6.5 µM (≈ 2.48 µg/mL)
Mitigation of WBI lethality at 5 mg/kg [4]: effective
Most effective dose in dose response [4]: 5 mg/kg
Mitigation of WBI lethality in C57Bl/6 female mice [4]: effective
Survivors at day 30 [4]: 100%
Mitigation of WBI lethality, oral gavage 5 mg/kg [4]: inactive
Mitigation of WBI lethality, oral gavage 25 mg/kg [4]: inactive
Effect of increasing the single dose [4]: did not improve efficacy
Mitigation of WBI lethality, single dose [4]: effective
viability at 10 µM [1]: 174%

O=[N+]([O-])c1ccc(S(=O)(=O)N2CCN(C/C=C/c3ccccc3)CC2)cc1 [Compound 4, 1-[(4-nitrobenzene) Sulfonyl]-4-[(2E)-3-phenylprop-2-en-1-yl]piperazine]
solubility (Solubility): 20.4 µM (≈ 7.9 µg/mL)
viability at 10 µM [1]: 163%

CCN(CC)S(=O)(=O)c1ccc([N+](=O)[O-])cc1 [Compound 5, N,N-diethyl-4-nitrophenyl-1-sulfonamide]
TNF-α production (TNF-α production): able to inhibit TNF-α production
solubility (Solubility): 513 µM (≈ 132 µg/mL)
viability at 10 µM [1]: 161%

O=[N+]([O-])c1ccc(S(=O)(=O)N2CCNCC2)cc1 [Compound P1]
Breakdown product identification [6]: natural breakdown product identified in vivo
Solubility in water (Solubility): soluble in water
Mitigation of WBI lethality by analogs [4, 7]: effective

NCCNS(=O)(=O)c1ccc([N+](=O)[O-])cc1 [Compound P2]
Solubility in water (Solubility): soluble in water
Survival after 30 days [4, 7]: 100%

NCCCCCCCCNS(=O)(=O)c1ccc([N+](=O)[O-])cc1 [Compound P3]
Solubility in water (Solubility): soluble in water
